The numbers were not newly measured in patent US20260207586A1, “PHARMACEUTICAL COMPOSITION COMPRISING LURBINECTEDIN, PREPARATION METHOD THEREFOR, AND USE THEREOF” (BrightGene Bio-Medical Technology Co., Ltd., priority 2022, published 2026), which cites them from elsewhere.

Each structure is given as a SMILES string.

With `COc1ccc2[nH]c3c(c2c1)CCN[C@]31CS[C@@H]2c3c(OC(C)=O)c(C)c4c(c3[C@H](COC1=O)N1[C@@H]2[C@H]2c3c(cc(C)c(OC)c3O)C[C@@H]([C@@H]1O)N2C)OCO4` [Lurbinectedin], the Solubility in water result was “limited”. In addition, the “Storage time under refrigeration” value (5° C.) is 1 month. Besides, the “Stability at room temperature” value (25° C.) is listed as “rapidly degraded”.
